Results on 7 compounds are retold here after paper PMC11634579, “Network pharmacology, experimental validation and pharmacokinetics integrated strategy to reveal pharmacological mechanism of goutengsan on methamphetamine dependence” (Frontiers in Pharmacology, 2024).

Data set [1] is described as follows: Pharmacokinetics and brain tissue distribution after gavage of GTS (UPLC-MS). Particulars: mice; for exposure in plasma and brain / detection in brain tissues / detection in plasma: after oral administration of GTS; for time at which concentration in brain peaked: gavage of GTS infusion (2.75 g crude drug/mL, 2 mL/kg), sampling 0.5, 2, 4, 6, 9 h. The class given is in vivo, Babl/c mice. How it is done: Animal experiments: Babl/c mice weighing 18–22 g (6–8 weeks old) with equal numbers of males and females, were provided by the Experimental Animal Center of Southern Medical University. The mice were maintained at room temperature (20 ± 2) °C, humidity (60 ± 5)%, 12 h light cycles, and provided an ad libitum diet. Thirty mice were randomly divided into 0.5, 2, 4, 6 and 9 h groups, with 6 mice each. An infusion at concentration of 2.75 g of GTS crude drug/mL was obtained, and the drug was administered by gavage at a dose of 2 mL GTS infusion drug/kg. After 0.5, 2, 4, 6 and 9 h of administration, the plasma and brain tissues in the 0.5, 2, 4, 6 and 9 h groups were collected. The plasma and brain tissue samples were processed in accordance with biological sample processing procedures.
Establishment of UPLC-MS method: An LCMS-8050 liquid chromatography mass spectrometer (Shimadzu, Japan) was operated with a horizon C18 column (100 × 2.1 mm, 3 µm). The mobile phase was 0.1% formic acid in water (A) - acetonitrile (B), and the gradient elution was 0–8 min, 10%–50% B; 8–9 min, 50%–10% B; 9–11 min, 10% B. The column temperature was 30°C, the injection volume was 5 μL, and flow rate was 0.4 mL min^−1. The mass spectrometry conditions included HPLC-MS/MS in […] full-scan and sub-ion scanning modes, an electrospray ionization source (ESI), positive and negative ion mode detection, and nebulizing gas of nitrogen (N2). The zeroed gas flow rate was 3 L min^−1, desolventization temperature was 526°C, and DL temperature was 250°C. Then the parent ion, daughter ion, collision energy, and polarity of the above components were determined (Table 2).

Details of data set [2]: method as in Ru et al., 2014. Conditions: obtained from TCMSP database; ref Ru et al., 2014; cited from earlier work.
Data set [3] in a line: MTT detection of cell viability. The class given is cell-based, human. Conditions: human, SH-SY5Y cells, 200 μmol ·L^−1, 48 h. The protocol:
(§1) SH-SY5Y cells were inoculated into a 96-well plate. […] After 48 h of incubation at 6 wells per concentration, MTT was added for 4 h. Then incubation was stopped, the liquid was discarded, and dimethyl sulfoxide was added. After horizontal shakening for 5 min, the absorbance at 490 nm was measured using an enzyme-linked immunosorbent assay (Elisa) reader ([Yang et al., 2018]).

The next data set has as its system SH-SY5Y cells. The data set is described as follows: MTT detection of cell viability. The class given is cell-based, human. Conditions: 48 h. The protocol:
as §1

The next data set relates to MA-induced CPP effect. The data set is described as follows: MA-dependent rat conditioned place preference (CPP) model. It counts as in vivo, Sprague-Dawley (SD) rats. Conditions: vs MA model group, GTS 11.00 g crude drug/kg i.p., MK-801 10 mg/kg i.p. The protocol: Male Sprague-Dawley (SD) rats weighing 180–220 g (2 months old) were provided by the Experimental Animal Center of Southern Medical University. The rats were maintained at room temperature (20 ± 2) °C, humidity (60 ± 5)%, 12 h light cycles, and provided an ad libitum diet. Before commencing the experiment, the rats were allowed to acclimatize for a minimum of 3 days. The Southern Medical University Experimental Animal Ethics Committee approved all animal experiments, which were conducted in accordance with the National Institutes of Health Guide for the Care and Use of Laboratory Animals (NIH publication #85–23, revised 1985). […] An MA-dependent rat CPP model was established in our previous studies and MA was used at 2 mg/kg ([Li et al., 2018b]). […] Before administration, determine the dosing volume based on each rat’s body weight; for example, a 200 g rat would receive a 1 mL dose.
Given the scarcity and specificity of […], we decided to use a 4x equivalent dose of GTS as the therapeutic dose. Thus, in the current study, only one treatment dose group of GTS was selected.
The CPP exam was made up of three phases over the course of 10 days (Figure 5A). During the habituation phase (days 1–3), each rat was allowed to move freely firom the black to white compartment for 30 min each day. On day 3, rats were videotaped throughout a 15-min trial and their movement trajectories, time spent and total movement distances were recorded. The door was closed to keep the two compartments apart during the conditioning period (on days 4–9). […] Rats were given the same amount of physiological saline (s.c.) in each group after an 8-h break, and they were then promptly segregated into the black compartment for 1 h. […] At 0:00 a.m. on day 10 (testing phase), the formal CPP testing began, rats were videotaped throughout a 15-min trial using Noldus Ethovision XT 8.5 software, and their movement trajectories, time spent and total movement distances were recorded.

Data set [4] concerns pyramidal cells in hippocampal CA1. The data set is described as follows: HE staining of rat hippocampal CA1 after CPP test. Particulars: vs MA model group. It counts as in vivo, Sprague-Dawley (SD) rats. From the text:
After the CPP test, a cervical dislocation method was used to euthanize the rats. The brain tissue of each rat was cut along the midline of the sagittal plane in the head. […] The hippocampus consists of CA1, CA2, CA3, and CA4. Specifically, CA1 is mainly composed of […], and is more suitable for MA-dependent observation ([Zhong et al., 2012]). Therefore, the pyramidal cells in hippocampal CA1 were mainly observed after hematoxylin-eosin (HE) staining. The hippocampal CA1 after HE staining was observed under microscopy and then photographed.

The test system of the next data set is cAMP. The data set is described as follows: Elisa detection of cAMP in MA-induced SH-SY5Y cells. The class given is cell-based, human. Conditions: vs MA model group (100 μmol ·L^−1 MA, 48 h); 4x equivalent dose GTS-containing serum, MK-801 100 μmol ·L^−1. The protocol:
(§2) An equal volume of the complete culture medium was added to the control group. The drug-containing culture medium (100 μmol ·L^−1 MA) was added to MA model group. […] After medication, all groups were continued for 48 h, photographed, and used for the next experiment.
(§3) The above SH-SY5Y cells were inoculated onto a 6-well plate, and cultured for 24 h. Then the culture medium was aspirated. The cells were rinsed with phosphate buffered salt (PBS) once. After PBS was removed, a hydrochloric acid solution was added. The cells were scraped to form cell suspension. After centrifugation, the supernatant was extracted, and the cAMP and 5-HT levels of the cells were detected according to the instructions of an Elisa reagent kit (Dakewei Biotechnology Co., Ltd.) ([Zhan et al., 2022]).

A further data set deals with 5-HT. Briefly: Elisa detection of 5-HT in MA-induced SH-SY5Y cells. The class given is cell-based, human. Particulars: vs MA model group (100 μmol ·L^−1 MA, 48 h); 4x equivalent dose GTS-containing serum, MK-801 100 μmol ·L^−1. The protocol: as §2, §3

“Also recorded” adds a separate entry of the source. Where a name gives a salt, the structure may show the parent alone.
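Throughout, for BBB (blood–brain–barrier): unitless TCMSP predicted score with screening cut-off BBB at least 0.3.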

As for `O=C(/C=C/c1ccc(O)c(O)c1)O[C@@H]1C[C@](O)(C(=O)O)C[C@@H](O)[C@H]1O` [Chlorogenic acid], the “exposure in plasma and brain” value in data set [1] is “exposed in the plasma and brain; also recorded: absorbed into the bloodstream and distributed to brain tissues”. Further, in data set [2], the “BBB (blood–brain–barrier)” value is 0.94 and the “OB% (oral bioavailability)” value is listed as 30.70%.

Regarding `CC1(C)[C@@H](O[C@H]2O[C@H](C(=O)O)[C@@H](O)[C@H](O)[C@H]2O[C@@H]2O[C@H](C(=O)O)[C@@H](O)[C@H](O)[C@H]2O)CC[C@]2(C)[C@H]3C(=O)C=C4[C@@H]5C[C@@](C)(C(=O)O)CC[C@]5(C)CC[C@@]4(C)[C@]3(C)CC[C@@H]12` [Glycyrrhizic acid], in data set [1], the “detection in brain tissues” value was “undetectable”; the detection in plasma entry is “detectable in plasma and at high levels”. For the same compound, in data set [2], the “BBB (blood–brain–barrier)” value is 0.80 and the “OB% (oral bioavailability)” value is 30.70%.

As for `COc1ccc([C@@H]2CC(=O)c3c(O)cc(O[C@@H]4O[C@H](CO[C@@H]5O[C@@H](C)[C@H](O)[C@@H](O)[C@H]5O)[C@@H](O)[C@H](O)[C@H]4O)cc3O2)cc1O` [Hesperidin], in data set [1], the “exposure in plasma and brain” value was “exposed in the plasma and brain; also recorded: absorbed into the bloodstream and distributed to brain tissues”; the “time at which concentration in brain peaked” value was 4 h. Further, in data set [2], the “BBB (blood–brain–barrier)” value is listed as 0.82 and the “OB% (oral bioavailability)” value is reported as 32.75%.

With `O=C1C[C@@H](c2ccc(O[C@@H]3O[C@H](CO)[C@@H](O)[C@H](O)[C@H]3O)cc2)Oc2cc(O)ccc21` [Liquiritin], in data set [1], the “detection in brain tissues” value is “undetectable”; the detection in plasma result was “detectable in plasma and at high levels”. Also, in data set [2], the “BBB (blood–brain–barrier)” value was 0.61 and the “OB% (oral bioavailability)” value was 58.81%.

What is called viability is the share of living cells, or the viability signal relative to a control. A high value points to less harm to the cells. Compound `CN[C@@H](C)Cc1ccccc1` [MA, Methamphetamine hydrochloride] had a viability at 48 h, 200 μmol·L^−1 in data set [3] of less than 90%. This compound also registered a maximum safe dose in the data set with SH-SY5Y cells of 100 µmol/L.

For the compound `C[C@]12N[C@H](Cc3ccccc31)c1ccccc12` [MK-801, Dizocilpine], the “movement trajectory in CPP box after MA training” value in the data set on MA-induced CPP effect (once daily days 5–9) was “significantly decreased”. In the data set on MA-induced CPP effect (n = 10), the “time spent in the white box after MA training” value is “same trend as GTS treatment group” and the “total movement distances in the white box after MA training” value was “same trend as GTS treatment group”. In addition, the “damage of pyramidal cells in hippocampal CA1 (HE staining)” value in data set [4] is listed as “significantly reduced damage”. For the same compound, the “level of cAMP in SH-SY5Y cells” value in the data set with cAMP is recorded as “same trend as GTS treatment group”. In addition, the “level of 5-HT in SH-SY5Y cells” value with 5-HT is recorded as “same trend as GTS treatment group”.

In the case of `CC[C@H]1CN2CC[C@]3(C(=O)Nc4ccccc43)[C@@H]2C[C@@H]1/C(=C\OC)C(=O)OC` [Rhynchophylline], in data set [1], the “exposure in plasma and brain” value was “exposed in the plasma and brain; also recorded: absorbed into the bloodstream and distributed to brain tissues”; the “time at which concentration in brain peaked” value is listed as 6 h. Besides, in data set [2], the “BBB (blood–brain–barrier)” value was 0.38 and the “OB% (oral bioavailability)” value was 41.82%.
